Reference: paper PMC10149208, “A validated HPLC-MS/MS method for simultaneously analyzing curcumin, demethoxycurcumin, bisdemethoxycurcumin, tetra-hydrocurcumin and piperine in human plasma, urine or feces” (Heliyon, 2023)

What was measured:
[1] = 48-h feces concentration after single oral intake of curcuminoid capsules; assay type: in vivo, human; details: 4 capsules containing 600 mg curcuminoids
Experimental: (§1) One mL TBME was added to the mixture. Feces samples were first diluted 10.000x (four steps of 1:10 dilution) with Bovine Serum Albumin (BSA) 2% in Milli-Q water to reduce matrix effects before 50 μL IS-mix 100uM was added to 100 μL feces dilution. A second 100 μL sample with IS solution was hydrolyzed with 50 μL 20 U/μl β-glucuronidase, vortexed and after this addition incubated for 1 h at 37 °C. Following 1 mL TBME was added. After shaking for 15 min at 480 rpm/min all samples were centrifuged at 18213×g during 1 min. The lower aqueous layer was frozen on dry-iced ethanol and the upper organic layer of approximately 1 mL was decanted into a fresh tube and dried under vacuum using a Speedvac at room temperature. Next, samples were reconstituted with 100 μL MeOH:H2O 60%:40%, vortexed and sonicated for 5 min. After centrifuge at 18213×g during 3 min the supernatant was ready for injection into the HPLC-MS/MS.
(§2) Data from three healthy male participants included from a study researching the bioavailability of curcumin formulations is presented to show the applicability of the method in real-life settings. The participants signed informed consent and followed diet restrictions to avoid any curcumin or piperine intake five days before the visit day to ensure that only curcumin and/or piperine from the curcumin capsules were observed. On the visit day a plasma concentration curve at t = 0, 0.25, 0.50, 0.75, 1, 1.5, 2, 4, 8 and 24 h, collection of 24-h urine and 48-h feces were taken after single oral intake of 4 commercially available soft capsules containing 600 mg curcuminoids (curcumin, demethoxycurcumin and bisdemethoxycurcumin with 95% purity). The trial has been approved by the local institutional ethics committee and has been registered in the Dutch Clinical Trial Register under registration number NL6552. Each individual sample was analyzed according to the method described above.

[2] = Freeze-thaw stability of QC stock solution in DMSO; assay type: physicochemical; details: stock 10 μM in DMSO at −20 °C
Experimental: Freeze-thaw stability of QC stock solution 10 μM at −20 °C was performed with stock solution that had underwent 0, 1 and 10 freeze-thaw cycles. Three samples per freeze-thaw cycle in MeOH:H2O 60%:40% were prepared at 100 nM and measured in duplicate. Four QC samples per concentration were prepared in plasma. Four replicates per sample were frozen for 60 min at −20 °C. All samples were thawed at room temperature and frozen ones (cycle 1). Per four replicates and concentrations the samples were thawed and frozen further a second, third or fourth time. All samples were thawed at the same time for simultaneous assessment with a calibration curve.

[3] = Stability of QC samples in plasma during storage in different conditions; assay type: in vitro ADME, human
[4] = Plasma concentration curve after single oral intake of curcuminoid capsules; assay type: in vivo, human; details: three participants, 4 capsules containing 600 mg curcuminoids, versus untreated sample
Experimental: as §1, §2

[5] = 24-h urine concentration after single oral intake of curcuminoid capsules; assay type: in vivo, human; details: three participants, 4 capsules containing 600 mg curcuminoids, versus untreated sample
Experimental: as §1, §2

[6] = test system: retinal pigmented epithelial cells and retinal endothelial cells; set-up: method as in PMID 30013474; details: 10 μM; cited from earlier work
[7] = test system: SW620 cells; set-up: method as in PMID 33812170; details: 10 μM, incubated for 2 days; cited from earlier work
[8] = test system: pancreatic cancer; set-up: method as in PMID 18628464; details: Phase II; cited from earlier work
[9] = set-up: method as in PMID 9619120; details: rats; addition of 20 mg/kg piperine; cited from earlier work
[10] = QC 10, Room temperature - light
[11] = QC 50, Room temperature - light
[12] = QC 100, Room temperature - dark
[13] = QC 100, Room temperature - light

Row | Molecule | Percentage in feces of the total expected dosage [1] | Freeze-thaw stability, concentration relative to nominal ([2]; QC 100 nM 0x thawed) [%] | Freeze-thaw stability, concentration relative to nominal ([2]; QC 100 nM 1x thawed) [%] | Freeze-thaw stability, concentration relative to nominal ([2]; QC 100 nM 10x thawed) [%] | Stability sample during storage ([3]; QC 10, AS (reference)) [%] | Stability sample during storage ([3]; QC 10, On ice - dark) [%] | Stability sample during storage ([3]; QC 10, Room temperature - dark) [%] | Stability sample during storage [3, 10] [%] | Stability sample during storage ([3]; QC 50, AS (reference)) [%] | Stability sample during storage ([3]; QC 50, On ice - dark) [%] | Stability sample during storage ([3]; QC 50, Room temperature - dark) [%] | Stability sample during storage [3, 11] [%] | Stability sample during storage ([3]; QC 100, AS (reference)) [%] | Stability sample during storage ([3]; QC 100, On ice - dark) [%] | Stability sample during storage [3, 12] [%] | Stability sample during storage [3, 13] [%] | Plasma peak concentrations after treatment with β-glucuronidase [4] | Urine concentrations after treatment with β-glucuronidase [5] | other results
1 | COc1cc(/C=C/C(=O)CC(=O)/C=C/c2ccc(O)c(OC)c2)ccc1O [Curcumin, curcumin] | roughly 21.7% | 100 | 99.8 | 96.8 | 100 | 76 | 83 | 82 | 100 | 89 | 94 | 91 | 100 | 87 | 90 | 89 | increase | increase | ROS concentration [6]: decrease; TNF-α release [6]: decrease; Phosphorylation levels of ERK and STAT1 [7]: significantly downregulated; Anecdotal beneficial effect, treated patients [8]: two out of 21
2 | COc1cc(CCC(=O)CC(=O)CCc2ccc(O)c(OC)c2)ccc1O [Tetrahydrocurcumin] |  | 100 | 101.0 | 100.0 | 100 | 96 | 89 | 88 | 100 | 99 | 93 | 93 | 100 | 94 | 88 | 87 | increase | increase | Presence in feces [1]: No tetrahydrocurcumin was found
3 | demethoxycurcumin [Demethoxy-curcumin] | 24.7% | 100 | 102.2 | 103.1 | 100 | 93 | 95 | 87 | 100 | 96 | 100 | 93 | 100 | 91 | 95 | 89 | increase | increase | 

More lines, main results first:

Row | Percentage in feces of the total expected dosage [1] | Freeze-thaw stability, concentration relative to nominal ([2]; QC 100 nM 0x thawed) [%] | Freeze-thaw stability, concentration relative to nominal ([2]; QC 100 nM 1x thawed) [%] | Freeze-thaw stability, concentration relative to nominal ([2]; QC 100 nM 10x thawed) [%] | Stability sample during storage ([3]; QC 10, AS (reference)) [%] | Stability sample during storage ([3]; QC 10, On ice - dark) [%] | Stability sample during storage ([3]; QC 10, Room temperature - dark) [%] | Stability sample during storage [3, 10] [%] | Stability sample during storage ([3]; QC 50, AS (reference)) [%] | Stability sample during storage ([3]; QC 50, On ice - dark) [%] | Stability sample during storage ([3]; QC 50, Room temperature - dark) [%] | Stability sample during storage [3, 11] [%] | Stability sample during storage ([3]; QC 100, AS (reference)) [%] | Stability sample during storage ([3]; QC 100, On ice - dark) [%] | Stability sample during storage [3, 12] [%] | Stability sample during storage [3, 13] [%] | Molecule | Plasma peak concentrations after treatment with β-glucuronidase [4] | Urine concentrations after treatment with β-glucuronidase [5] | other results
4 | 13% | 100 | 100.7 | 97.1 | 100 | 90 | 95 | 88 | 100 | 90 | 92 | 89 | 100 | 84 | 84 | 82 | O=C(/C=C/c1ccc(O)cc1)CC(=O)/C=C/c1ccc(O)cc1 [Bisdemethoxy-curcumin, bisdemethoxycurcumin] | increase | increase | 
5 |  | 100 | 101.8 | 101.7 | 100 | 77 | 78 | 77 | 100 | 90 | 85 | 90 | 100 | 89 | 85 | 85 | O=C(/C=C/C=C/c1ccc2c(c1)OCO2)N1CCCCC1 [Piperine-135, piperine] |  |  | Increase of bioavailability of curcumin [9]: 154%
